In article PMC9817100, “Preclinical profiles of SKB264, a novel anti-TROP2 antibody conjugated to topoisomerase inhibitor, demonstrated promising antitumor efficacy compared to IMMU-132” (Frontiers in Oncology, 2022):

Key:
[1] = molecular target: T1, DNA topoisomerase I (Homo sapiens, UniProt P11387); experiment: topoisomerase I-mediated DNA relaxation assay (cell-free); format: biochemical; settings: read-out: DNA topoisomerase I inhibition (IC50)
T1 sequence (P11387 1-765): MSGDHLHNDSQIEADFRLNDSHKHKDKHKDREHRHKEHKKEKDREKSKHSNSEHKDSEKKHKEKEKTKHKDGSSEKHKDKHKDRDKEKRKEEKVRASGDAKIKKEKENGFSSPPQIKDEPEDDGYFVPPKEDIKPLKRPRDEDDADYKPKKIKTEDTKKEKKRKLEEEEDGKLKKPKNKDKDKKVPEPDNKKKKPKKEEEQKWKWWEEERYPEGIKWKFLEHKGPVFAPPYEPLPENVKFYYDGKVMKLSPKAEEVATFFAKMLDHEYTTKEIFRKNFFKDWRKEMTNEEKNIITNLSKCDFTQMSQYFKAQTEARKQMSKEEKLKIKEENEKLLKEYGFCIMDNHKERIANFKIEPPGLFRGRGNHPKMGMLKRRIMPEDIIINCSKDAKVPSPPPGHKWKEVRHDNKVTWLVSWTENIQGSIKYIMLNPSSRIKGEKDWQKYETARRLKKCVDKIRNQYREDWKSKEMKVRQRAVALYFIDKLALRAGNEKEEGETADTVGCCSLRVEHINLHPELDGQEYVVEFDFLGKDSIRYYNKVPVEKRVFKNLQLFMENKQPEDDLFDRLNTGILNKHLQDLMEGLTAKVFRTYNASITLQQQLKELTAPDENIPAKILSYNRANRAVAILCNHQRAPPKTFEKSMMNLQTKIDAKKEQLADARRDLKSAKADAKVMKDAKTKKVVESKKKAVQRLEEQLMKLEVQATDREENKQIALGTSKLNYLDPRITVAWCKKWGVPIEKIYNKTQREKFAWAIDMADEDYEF
Text: SKB264 is a TROP2-targeting ADC, which consists of a recombinant humanized anti-TROP2 antibody and a topoisomerase I inhibitor derived from Belotecan (KL610023), integrated together via a sulfonyl pyrimidine-CL2A-carbonate linker. The payload is conjugated with the antibody through irreversible nucleophilic aromatic substitution by tris (2-carboxyethyl) phosphine hydrochloride (TCEP HCl), a reducing agent that can reduce the interchain disulfide bounds. The drug-to-antibody ratio (DAR) of SKB264 was approximately 7.4, which was determined by the reversed-phase chromatography (RPC), and might be the theoretical maximum drug loading number for conventional interchain cysteine conjugation ( Figure 1B ). SKB264 was designed to release payload KL610023 after internalization by TROP2-expressing tumor cells. The inhibitory effect of KL610023 on topoisomerase I was almost similar to that of SN-38, as measured by a topoisomerase I-mediated DNA relaxation assay ( Figure 1C ).
Figure 1 Structure and characterization of SKB264. […] (B) The distribution of the conjugated drug determined by the reverse-phase chromatography analysis (L-0: Unconjugated light chain, L-1: Light chain conjugated with one payload, H-0: Unconjugated heavy chain, H-1: Heavy chain conjugated with one payload, H-2: Heavy chain conjugated with two payloads, H-3: Heavy chain conjugated with three payloads). […]

[2] = test system: NCI-H23(TROP2+); experiment: cytotoxic assay (CellTiter-Glo, 72 h) NCI-H23 (TROP2+); format: cell-based; settings: Homo sapiens, read-out: IC50 cell growth inhibition
Method: Tumor cells were seeded on 96-well plates at the following concentrations: HCC1806 (3,000 cells per well), NCI-N87 (5,000 cells per well), BxPC-3 (2,000 cells per well), Calu-3 (8,000 cells per well), NCI-H23 (TROP2+, 3,000 cells per well), and NCI-H23 (parental, 3,000 cells per well). After overnight incubation, the diluted testing items were added respectively. After 72 h, cell viability was evaluated using a CellTiter-Glo Luminescent Cell Viability Assay (Promega Corp. Madison, WI), following the manufacturer’s instruction.

CC[C@@]1(O)C(=O)OCc2c1cc1n(c2=O)Cc2c-1nc1ccccc1c2CCN(C(C)C)S(C)(=O)=O [KL610023]
IC50 [1]: 700 nM | IC50 [2]: 4.77 nM
